doi:10.1101/265348v4, “Transcriptional Activation of Elephant Shark Mineralocorticoid Receptor by Corticosteroids, Progesterone and Spironolactone” (biorxiv, 2018)
Each block holds one compound with its values, some of them ahead of it.

Tests used:
Assay in all cases: cell-based
Conditions in all cases: HEK293; relative to aldosterone = 100%; read-out: % relative to Aldo
[1] = target: T1, full-length elephant shark MR (Callorhinchus milii, UniProt A0A4W3I5J5); parameters: transcriptional activation of full-length MR, MMTV-luciferase reporter, concentration-response
T1 construct: gene nr3c2; full coding region in pcDNA3.1, expressed in HEK293 cells
T1 sequence (A0A4W3I5J5 1-956): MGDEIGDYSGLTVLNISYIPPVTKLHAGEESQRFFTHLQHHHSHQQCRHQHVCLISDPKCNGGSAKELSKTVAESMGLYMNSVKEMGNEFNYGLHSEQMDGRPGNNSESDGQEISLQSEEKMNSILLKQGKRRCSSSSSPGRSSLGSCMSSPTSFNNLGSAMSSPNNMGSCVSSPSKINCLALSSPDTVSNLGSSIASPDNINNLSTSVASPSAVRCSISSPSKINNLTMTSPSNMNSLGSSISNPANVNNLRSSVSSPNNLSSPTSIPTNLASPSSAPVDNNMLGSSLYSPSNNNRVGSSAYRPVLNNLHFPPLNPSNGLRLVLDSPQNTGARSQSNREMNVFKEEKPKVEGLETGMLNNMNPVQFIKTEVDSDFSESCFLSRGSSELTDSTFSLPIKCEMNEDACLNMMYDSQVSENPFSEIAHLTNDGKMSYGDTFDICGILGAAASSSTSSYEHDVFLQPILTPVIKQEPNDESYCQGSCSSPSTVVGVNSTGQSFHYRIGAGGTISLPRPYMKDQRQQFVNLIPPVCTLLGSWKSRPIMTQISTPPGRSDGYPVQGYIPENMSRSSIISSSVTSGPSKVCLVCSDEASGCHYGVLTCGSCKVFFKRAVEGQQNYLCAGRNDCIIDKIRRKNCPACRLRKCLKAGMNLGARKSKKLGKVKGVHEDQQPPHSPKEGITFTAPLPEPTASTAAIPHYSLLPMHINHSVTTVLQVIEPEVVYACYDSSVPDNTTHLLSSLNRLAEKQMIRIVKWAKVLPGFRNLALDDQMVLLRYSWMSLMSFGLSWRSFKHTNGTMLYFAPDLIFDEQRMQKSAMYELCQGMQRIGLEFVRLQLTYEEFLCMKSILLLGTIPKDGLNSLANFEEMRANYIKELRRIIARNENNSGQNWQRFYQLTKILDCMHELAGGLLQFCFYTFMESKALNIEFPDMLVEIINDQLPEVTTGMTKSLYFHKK
Source text: (§1) Figure 3. Transcriptional activation of elephant shark MR by 3-ketosteroids. Full length and truncated elephant shark MR were expressed in HEK293 cells with an MMTV-luciferase reporter. A. Full length elephant shark MR. […] (19NP), 17OH-Prog, Spiron or vehicle alone (DMSO). B. Truncated elephant shark MR. […] (19NP), 17OH-Prog or Spiron or vehicle alone (DMSO). Results are expressed as means ± SEM, n=3. Y-axis indicates fold-activation compared to the activity of control vector with vehicle (DMSO) alone as 1.  Figure 4. Concentration-dependent transcriptional activation of full-length and truncated elephant shark MR (shark MR) by 3-ketosteroids. Full length and truncated elephant shark MR (shark MR) were expressed in HEK293 cells with an MMTV-luciferase reporter. Full-length elephant shark MR (shark MR) (A) and (C) and truncated elephant shark MR (shark MR) (B) and (D). (A), (B) Aldo, cortisol, corticosterone, 11deoxycorticosterone or 11-deoxycortisol. (C), (D) Aldo, Prog, [compound left out] [compound left out], 17OH-Prog (17OH-P) or Spiron. […] Y-axis indicates fold-activation compared to the activity of control vector with vehicle (DMSO) alone as 1.  Figure 5. Concentration-dependent transcriptional activation of full-length and truncated chicken and zebrafish MR by progestins and Spironolactone. […] Full-length chicken MR (A) and zebrafish MR (B) and truncated chicken MR (C) and zebrafish MR (D). Y-axis indicates fold-activation compared to the activity of control vector with vehicle (DMSO) alone as 1.

[2] = target: T2, truncated elephant shark MR (GAL4-DBD-MR-LBD) (Callorhinchus milii, UniProt A0A4W3I5J5); parameters: transcriptional activation of truncated GAL4-DBD-MR-LBD, luciferase reporter, concentration-response
T2 construct: gene nr3c2
T2 sequence (A0A4W3I5J5 658-956 limits assumed): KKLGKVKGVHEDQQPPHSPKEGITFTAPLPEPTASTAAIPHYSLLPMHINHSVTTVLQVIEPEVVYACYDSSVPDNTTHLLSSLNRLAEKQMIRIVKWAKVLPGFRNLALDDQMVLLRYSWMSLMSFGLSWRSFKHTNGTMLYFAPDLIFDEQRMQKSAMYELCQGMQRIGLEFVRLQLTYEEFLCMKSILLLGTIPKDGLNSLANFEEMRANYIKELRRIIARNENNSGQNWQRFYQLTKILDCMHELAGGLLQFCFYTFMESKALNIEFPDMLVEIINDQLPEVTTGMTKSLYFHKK
Source text: (§2) In parallel experiments, truncated elephant shark MR, lacking the A/B domain and containing a GAL4-DBD instead of the MR DBD, retained a strong response to all corticosteroids and to [compound left out] (Figure 3B). […] Concentration-dependent transcriptional activation of full-length and truncated elephant shark MR (shark MR) by 3-ketosteroids. Full length and truncated elephant shark MR (shark MR) were expressed in HEK293 cells with an MMTV-luciferase reporter. Full-length elephant shark MR (shark MR) (A) and (C) and truncated elephant shark MR (shark MR) (B) and (D). (A), (B) Aldo, cortisol, corticosterone, 11deoxycorticosterone or 11-deoxycortisol. (C), (D) Aldo, Prog, [compound left out] [compound left out], 17OH-Prog (17OH-P) or Spiron. […] Y-axis indicates fold-activation compared to the activity of control vector with vehicle (DMSO) alone as 1.  Figure 5. Concentration-dependent transcriptional activation of full-length and truncated chicken and zebrafish MR by progestins and Spironolactone. […] Full-length chicken MR (A) and zebrafish MR (B) and truncated chicken MR (C) and zebrafish MR (D). Y-axis indicates fold-activation compared to the activity of control vector with vehicle (DMSO) alone as 1.

[3] = target: T3, full-length zebrafish MR (Danio rerio, UniProt A6YIH7); parameters: transcriptional activation of full-length MR, MMTV-luciferase reporter, concentration-response
T3 construct: gene nr3c2; full-length, expressed in HEK293 cells
T3 sequence (A6YIH7 1-970): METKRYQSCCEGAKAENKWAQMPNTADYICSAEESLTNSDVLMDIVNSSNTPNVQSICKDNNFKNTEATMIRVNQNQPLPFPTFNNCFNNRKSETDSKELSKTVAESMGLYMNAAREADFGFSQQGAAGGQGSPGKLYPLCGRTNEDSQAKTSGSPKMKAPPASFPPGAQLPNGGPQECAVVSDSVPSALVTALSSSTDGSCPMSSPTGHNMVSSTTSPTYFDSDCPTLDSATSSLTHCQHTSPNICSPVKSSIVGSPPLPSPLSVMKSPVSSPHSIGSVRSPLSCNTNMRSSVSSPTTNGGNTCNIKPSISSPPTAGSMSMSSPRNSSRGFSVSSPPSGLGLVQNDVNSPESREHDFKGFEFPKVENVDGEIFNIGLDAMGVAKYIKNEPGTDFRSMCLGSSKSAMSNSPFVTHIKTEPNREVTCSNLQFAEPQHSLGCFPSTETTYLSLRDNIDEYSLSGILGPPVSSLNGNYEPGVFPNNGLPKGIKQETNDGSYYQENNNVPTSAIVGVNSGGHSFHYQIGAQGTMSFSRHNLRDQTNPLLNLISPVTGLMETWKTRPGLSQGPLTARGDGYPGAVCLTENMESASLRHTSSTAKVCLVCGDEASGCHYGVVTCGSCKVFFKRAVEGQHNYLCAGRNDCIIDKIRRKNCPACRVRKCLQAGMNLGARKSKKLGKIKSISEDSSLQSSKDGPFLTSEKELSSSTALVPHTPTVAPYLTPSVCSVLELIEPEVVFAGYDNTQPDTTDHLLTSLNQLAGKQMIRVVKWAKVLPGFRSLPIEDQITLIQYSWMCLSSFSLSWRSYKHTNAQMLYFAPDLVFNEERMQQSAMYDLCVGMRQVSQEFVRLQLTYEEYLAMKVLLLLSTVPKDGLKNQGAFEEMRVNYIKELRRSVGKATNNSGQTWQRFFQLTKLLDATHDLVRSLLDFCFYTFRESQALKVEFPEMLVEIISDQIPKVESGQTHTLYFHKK
Source text: as §1

[4] = target: T4, full-length chicken MR (Gallus gallus, UniProt C1KB84); parameters: transcriptional activation of full-length MR, MMTV-luciferase reporter, concentration-response
T4 construct: gene NR3C2; full-length, expressed in HEK293 cells
T4 sequence (C1KB84 1-986): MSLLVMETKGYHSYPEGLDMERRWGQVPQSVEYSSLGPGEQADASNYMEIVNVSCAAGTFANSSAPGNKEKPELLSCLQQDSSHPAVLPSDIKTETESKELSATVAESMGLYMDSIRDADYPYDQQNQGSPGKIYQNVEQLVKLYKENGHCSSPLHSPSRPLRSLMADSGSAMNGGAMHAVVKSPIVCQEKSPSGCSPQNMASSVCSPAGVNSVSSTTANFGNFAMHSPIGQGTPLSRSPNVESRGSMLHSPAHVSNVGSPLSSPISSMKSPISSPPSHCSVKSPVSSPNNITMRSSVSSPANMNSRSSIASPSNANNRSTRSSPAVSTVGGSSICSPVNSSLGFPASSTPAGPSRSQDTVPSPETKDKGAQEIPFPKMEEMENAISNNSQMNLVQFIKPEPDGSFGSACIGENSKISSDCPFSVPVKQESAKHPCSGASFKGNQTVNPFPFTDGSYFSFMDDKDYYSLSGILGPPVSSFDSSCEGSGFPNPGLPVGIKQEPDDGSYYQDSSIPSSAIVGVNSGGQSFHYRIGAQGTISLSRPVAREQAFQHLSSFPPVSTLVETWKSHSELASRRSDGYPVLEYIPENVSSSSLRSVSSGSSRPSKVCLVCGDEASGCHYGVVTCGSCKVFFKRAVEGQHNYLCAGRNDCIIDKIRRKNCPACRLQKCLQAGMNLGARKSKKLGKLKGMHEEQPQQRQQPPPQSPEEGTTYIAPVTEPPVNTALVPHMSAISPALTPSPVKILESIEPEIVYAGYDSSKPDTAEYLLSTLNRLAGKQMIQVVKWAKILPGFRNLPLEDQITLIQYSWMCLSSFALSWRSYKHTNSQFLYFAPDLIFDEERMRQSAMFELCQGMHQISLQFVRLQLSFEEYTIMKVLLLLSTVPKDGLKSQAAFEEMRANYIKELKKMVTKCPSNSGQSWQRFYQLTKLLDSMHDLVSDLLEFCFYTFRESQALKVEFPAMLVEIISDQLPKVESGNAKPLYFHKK
Source text: as §1

[5] = target: T5, truncated zebrafish MR (GAL4-DBD-MR-LBD) (Danio rerio, UniProt A6YIH7); parameters: transcriptional activation of truncated GAL4-DBD-MR-LBD, luciferase reporter, concentration-response
T5 construct: gene nr3c2
T5 sequence (A6YIH7 669-970 limits assumed): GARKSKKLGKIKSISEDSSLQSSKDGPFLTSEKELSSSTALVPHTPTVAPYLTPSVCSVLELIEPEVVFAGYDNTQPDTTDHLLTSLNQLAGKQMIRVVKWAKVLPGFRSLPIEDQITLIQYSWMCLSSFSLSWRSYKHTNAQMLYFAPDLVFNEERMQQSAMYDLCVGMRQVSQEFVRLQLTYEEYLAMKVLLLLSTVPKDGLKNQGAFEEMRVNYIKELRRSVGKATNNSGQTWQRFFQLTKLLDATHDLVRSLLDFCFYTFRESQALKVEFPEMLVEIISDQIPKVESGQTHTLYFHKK
Source text: as §2

SMILES: CC(=O)S[C@@H]1CC2=CC(=O)CC[C@]2(C)[C@H]2CC[C@@]3(C)[C@@H](CC[C@@]34CCC(=O)O4)[C@H]12 [Spiron]
Emax [3]: 54%
Emax [4]: 30%
Emax [1]: 45%
Emax [2]: 53%

SMILES: C[C@]12CC[C@H]3[C@@H](CCC4=CC(=O)CC[C@@]43C)[C@@H]1CC[C@@H]2C(=O)CO [11-deoxycorticosterone]
Emax [1]: 83%
Emax [2]: 81%

SMILES: CC(=O)[C@H]1CC[C@H]2[C@@H]3CCC4=CC(=O)CC[C@@H]4[C@H]3CC[C@]12C [19norProg]
Emax [3]: 83%
Emax [4]: 68%
Emax [1]: 84%
Emax [5]: 122%
Emax [2]: 98%

SMILES: CC(=O)[C@H]1CC[C@H]2[C@@H]3CCC4=CC(=O)CC[C@]4(C)[C@H]3CC[C@]12C [Prog]
Emax [3]: 77%
Emax [4]: 62%
Emax [1]: 43%
Emax [5]: 122%
Emax [2]: 40%

SMILES: C[C@]12C[C@H](O)[C@H]3[C@@H](CCC4=CC(=O)CC[C@@]43C)[C@@H]1CC[C@@H]2C(=O)CO [B, corticosterone]
Emax [1]: 101%
Emax [2]: 90%

Further lines, results first:

Emax [1]: 83%
Emax [2]: 77%
SMILES: C[C@]12CCC(=O)C=C1CC[C@@H]1[C@@H]2CC[C@@]2(C)[C@H]1CC[C@]2(O)C(=O)CO [S, 11-deoxycortisol]

Emax [3]: 44%
Emax [4]: 15%
Emax [1]: 25%
Emax [2]: 26%
SMILES: CC(=O)[C@@]1(O)CC[C@H]2[C@@H]3CCC4=CC(=O)CC[C@]4(C)[C@H]3CC[C@@]21C [17OH-Prog]

Emax [1]: 114%
Emax [2]: 79%
SMILES: C[C@]12CCC(=O)C=C1CC[C@@H]1[C@@H]2[C@@H](O)C[C@@]2(C)[C@H]1CC[C@]2(O)C(=O)CO [cortisol]
